Data: patent US7935670B2, “Hepatitis C virus inhibitors” (Bristol-Myers Squibb Company, priority 2006, dated 2011)
Where two headings read alike, the source gives them in different places.

Columns and labels:
[1] = tested on: HCV replicon in HUH-7 cells; test: HCV replicon FRET assay; assay type: cell-based, HCV strain 1b; conditions: Hepatitis C virus
From the text: An HCV replicon whole cell system was established as described by Lohmann V, Korner F, Koch J, Herian U, Theilmann L, Bartenschlager R., Science 285(5424): 110-3 (1999). This system enabled us to evaluate the effects of our HCV Protease compounds on HCV RNA replication. Briefly, using the HCV strain 1b sequence described in the Lohmann paper (Assession number: AJ238799), an HCV cDNA was synthesized by Operon Technologies, Inc. (Alameda, Calif.), and the full-length replicon was then assembled in plasmid pGem9zf(+) (Promega, Madison, Wis.) using standard molecular biology techniques. The replicon consists of (i) the HCV 5′ UTR fused to the first 12 amino acids of the capsid protein, (ii) the neomycin phosphotransferase gene (neo), (iii) the IRES from encephalomyocarditis virus (EMCV), and (iv) HCV NS3 to NS5B genes and the HCV 3′ UTR. Plasmid DNAs were linearized with ScaI and RNA transcripts were synthesized in vitro using the T7 MegaScript transcription kit (Ambion, Austin, Tex.) according to manufacturer's directions. In vitro transcripts of the cDNA were transfected into the human hepatoma cell line, HUH-7. […] Resulting cell lines were characterized for positive and negative strand RNA production and protein production over time.
The HCV replicon FRET assay was developed to monitor the inhibitory effects of compounds described in the disclosure on HCV viral replication. HUH-7 cells, constitutively expressing the HCV replicon, were grown in Dulbecco's Modified Eagle Media (DMEM) (Gibco-BRL) containing 10% Fetal calf serum (FCS) (Sigma) and 1 mg/ml G418 (Gibco-BRL). Cells were seeded the night before (1.5×10^4 cells/well) in 96-well tissue-culture sterile plates. Compound and no compound controls were prepared in DMEM containing 4% FCS, 1:100 Penicillin/Streptomysin (Gibco-BRL), 1:100 L-glutamine and 5% DMSO in the dilution plate (0.5% DMSO final concentration in the assay). Compound/DMSO mixes were added to the cells and incubated for 4 days at 37° C. After 4 days, cells were first assessed for cytotoxicity using alamar Blue (Trek Diagnotstic Systems) for a CC50 reading. The toxicity of compound (CC50) was determined by adding 1/10th volume of alamar Blue to the media incubating the cells. After 4 h, the fluorescence signal from each well was read, with an excitation wavelength at 530 nm and an emission wavelength of 580 nm, using the Cytofluor Series 4000 (Perspective Biosystems). Plates were then rinsed thoroughly with Phosphate-Buffered Saline (PBS) (3 times 150 μl). The cells were lysed with 25 μl of a lysis assay reagent containing an HCV protease substrate (5× cell Luciferase cell culture lysis reagent (Promega #E153A) diluted to 1× with distilled water, NaCl added to 150 mM final, the FRET peptide substrate (as described for the enzyme assay above) diluted to 10 μM final from a 2 mM stock in 100% DMSO. The plate was then placed into the Cytofluor 4000 instrument which had been set to 340 nm excitation/490 nm emission, automatic mode for 21 cycles and the plate read in a kinetic mode. EC50 determinations were carried out as described for the IC50 determinations.

[2] = tested on: HCV replicon (Renilla luciferase reporter) in HUH-7 cells; test: HCV replicon luciferase reporter assay; assay type: cell-based, HCV strain 1b; conditions: Huh-7, 96 h, 4 days

**Q.** `C=C[C@@H]1C[C@]1(NC(=O)[C@@H]1C[C@@H](OC(=O)c2ccccc2)CN1C(=O)[C@@H](NC(=O)OC(C)(C)C)C(C)(C)C)C(=O)NS(=O)(=O)C1CC1` [Compound 1] was tested. Which EC50 ([1]; 96 h, HUH-7 replicon cells, 4 days, read-out: EC50 in the replicon FRET assay) did it give?
**A.** 484 nM

**Q.** What about the EC50 ([1]; Huh-7, read-out: Activity Range (EC50)) of the same molecule?
**A.** 200 to 1000 nM

**Q.** And the EC50 [2]?
**A.** 51 nM
